From patent US11945794B2, “Nuclear transport modulators and uses thereof” (Karyopharm Therapeutics Inc., priority 2013, dated 2024)

Experiments:
[1] = system: XPO1 cargo proteins: p53, IκB, Foxo1A, PP2A, p21 and p27; assay: XPO1 cargo localization assay in U2OS cells (immunofluorescence); format: cell-based; details: 500 nM, 4 to 24 hours
Description: The fixed cells were analyzed by immunofluorescence (IF) for the nuclear localization of the following XPO1 cargo proteins: p53, IκB, Foxo1A, PP2A, p21 and p27. Nuclei were stained with DAPI. Images were taken at 20× magnification.

XPO1 = target: T1, XPO1 (Homo sapiens, UniProt O14980); assay: XPO1 degradation assay in HT1080 cells (Western blot); format: cell-based; details: five concentrations, 24 hours
T1 construct: endogenous in cells; host or cells: HT1080 (fibrosarcoma) cells
T1 sequence (O14980 whole entry): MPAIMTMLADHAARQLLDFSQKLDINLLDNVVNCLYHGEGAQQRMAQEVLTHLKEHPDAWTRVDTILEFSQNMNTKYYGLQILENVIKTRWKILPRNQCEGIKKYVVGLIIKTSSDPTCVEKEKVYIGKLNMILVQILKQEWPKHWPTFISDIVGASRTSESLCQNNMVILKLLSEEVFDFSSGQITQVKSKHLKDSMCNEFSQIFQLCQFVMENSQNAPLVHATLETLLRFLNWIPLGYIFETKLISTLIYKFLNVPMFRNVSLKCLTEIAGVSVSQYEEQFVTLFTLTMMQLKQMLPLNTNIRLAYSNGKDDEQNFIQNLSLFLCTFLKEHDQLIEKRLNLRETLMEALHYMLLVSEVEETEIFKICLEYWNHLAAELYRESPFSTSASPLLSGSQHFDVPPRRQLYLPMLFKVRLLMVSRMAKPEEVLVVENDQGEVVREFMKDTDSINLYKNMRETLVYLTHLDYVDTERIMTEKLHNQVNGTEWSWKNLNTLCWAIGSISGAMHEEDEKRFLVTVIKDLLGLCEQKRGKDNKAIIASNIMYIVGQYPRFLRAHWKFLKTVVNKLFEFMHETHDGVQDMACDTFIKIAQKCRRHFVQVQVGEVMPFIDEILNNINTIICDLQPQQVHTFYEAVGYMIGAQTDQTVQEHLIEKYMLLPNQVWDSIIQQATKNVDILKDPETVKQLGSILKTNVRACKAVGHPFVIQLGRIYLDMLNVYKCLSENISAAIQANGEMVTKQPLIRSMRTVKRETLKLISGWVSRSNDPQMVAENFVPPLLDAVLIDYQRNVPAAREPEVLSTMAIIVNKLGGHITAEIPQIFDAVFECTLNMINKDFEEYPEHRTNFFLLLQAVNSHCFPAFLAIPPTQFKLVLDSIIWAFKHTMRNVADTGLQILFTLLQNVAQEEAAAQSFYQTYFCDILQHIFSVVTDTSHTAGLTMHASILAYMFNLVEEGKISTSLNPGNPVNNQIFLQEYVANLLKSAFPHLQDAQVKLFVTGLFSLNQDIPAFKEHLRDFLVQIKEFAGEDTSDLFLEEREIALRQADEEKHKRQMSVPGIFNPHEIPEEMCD
Description: Western blot analysis of cellular lysates of the treated cells was used to determine the protein expression of XPO1. Beta-actin was used as a loading control.

MOLT 4 xenograft = assay: MOLT 4 acute lymphoblastic leukemia xenograft model; format: in vivo, mouse; details: 5 or 15 mg/kg PO daily, SCID mice, compared to vehicle
Description: MOLT 4 (CRL-1582) acute lymphoblastic leukemia cells were obtained from ATCC. These cells were grown in RPMI-1640 medium supplemented with 10% fetal bovine serum, 1% penicillin and streptomycin. Cells were sub-cultured by transferring floating cells to a new flask and trypsinizing adherent cells before subculturing at a ratio of 1:4. MOLT 4 cells were harvested by centrifugation and counted using a hemocytometer. Cells were resuspended in PBS at a concentration of 5×10^7 cells per mL. Cells were placed on ice, and then mixed with an equal volume of Matrigel™ (BD Biosciences CB-40234). This mixture was kept on ice and injected into the left flank of mice in a volume of 0.2 mL, equivalent to 5×10^6 cells per mouse. Thirty-two (32) SCID mice were inoculated subcutaneously in the left flank with 5×10^6 MOLT 4 cells. Treatment was initiated when the tumors reached a mean volume of 106.5 mm^3 (standard deviation±33.9 mm^3, CV 31.9%, range 43-181 mm^3). Mice were allocated to four (4) groups of eight (8) mice, […], such that mean tumor volume in each group was within the range of 102 to 111 mm^3. […] With the exception of doxorubicin (which was given IP), all compounds were given by oral gavage. […] Animal weights and conditions were recorded daily, and tumors were measured on Mondays, Wednesdays and Fridays.

BL-2 = assay: MTT assay panel; format: cell-based; details: BL2; BL-2 cells, 72 hours
Description: (§1) Compound 124 was further tested against a panel of selected solid and hematological cancer cell lines and selected normal cell lines in an MTT assay. Briefly, the various cell lines above were plated at different densities on day 1. […] Cell Titer AQueous One was added to each well, and the plates were read in a plate reader at OD 495.

C6 = assay: MTT assay panel; format: cell-based; details: Rattus norvegicus; C6 cells, 72 hours
Description: as §1

DB = assay: MTT assay panel; format: cell-based; details: Homo sapiens; DB cells, 72 hours
Description: as §1

Daudi = assay: MTT assay panel; format: cell-based; details: Homo sapiens; Daudi cells, 72 hours
Description: as §1

HEP3B = assay: MTT assay panel; format: cell-based; details: Homo sapiens; HEP3B cells, 72 hours
Description: as §1

HPAC = assay: MTT assay panel; format: cell-based; details: Homo sapiens; HPAC cells, 72 hours
Description: as §1

HTB-38 = assay: MTT assay panel; format: cell-based; details: HTB-38 cells, 72 hours
Description: as §1

LS-174T = assay: MTT assay panel; format: cell-based; details: Homo sapiens, LS174T; LS-174T cells, 72 hours
Description: as §1

LoVo = assay: MTT assay panel; format: cell-based; details: Homo sapiens; LoVo cells, 72 hours
Description: as §1

MS751 = assay: MTT assay panel; format: cell-based; details: MS751 cells, 72 hours
Description: as §1

MV-4-11 = assay: MTT assay panel; format: cell-based; details: Homo sapiens, MV4-11; MV-4-11 cells, 72 hours
Description: as §1

NCI-H1650 = assay: MTT assay panel; format: cell-based; details: Homo sapiens; NCI-H1650 cells, 72 hours
Description: as §1

NCI-H2122 = assay: MTT assay panel; format: cell-based; details: Homo sapiens; NCI-H2122 cells, 72 hours
Description: as §1

NCI-H2170 = assay: MTT assay panel; format: cell-based; details: Homo sapiens; NCI-H2170 cells, 72 hours
Description: as §1

NCI-H358 = assay: MTT assay panel; format: cell-based; details: Homo sapiens; NCI-H358 cells, 72 hours
Description: as §1

NCI-H508 = assay: MTT assay panel; format: cell-based; details: Homo sapiens; NCI-H508 cells, 72 hours
Description: as §1

NCI-H520 = assay: MTT assay panel; format: cell-based; details: Homo sapiens; NCI-H520 cells, 72 hours
Description: as §1

NCI-H820 = assay: MTT assay panel; format: cell-based; details: NCI-H820 cells, 72 hours
Description: as §1

PANC-10.05 = assay: MTT assay panel; format: cell-based; details: Homo sapiens, Panc1005; PANC-10.05 cells, 72 hours
Description: as §1

PATU-8902 = assay: MTT assay panel; format: cell-based; details: PATU-8902 cells, 72 hours
Description: as §1

SHSY5Y = assay: MTT assay panel; format: cell-based; details: Homo sapiens, SH-SY5Y; SHSY5Y cells, 72 hours
Description: as §1

SK-CO-1 = assay: MTT assay panel; format: cell-based; details: Homo sapiens; SK-CO-1 cells, 72 hours
Description: as §1

SW-480 = assay: MTT assay panel; format: cell-based; details: Homo sapiens, SW480; SW-480 cells, 72 hours
Description: as §1

TFK-1 = assay: MTT assay panel; format: cell-based; details: TFK-1 cells, 72 hours
Description: as §1

THP1 = assay: MTT assay panel; format: cell-based; details: Homo sapiens, THP-1; THP1 cells, 72 hours
Description: as §1

Tera-1 = assay: MTT assay panel; format: cell-based; details: Tera-1 cells, 72 hours
Description: as §1

Z-138 = assay: MTT assay panel; format: cell-based; details: Homo sapiens; Z-138 cells, 72 hours
Description: as §1

protein expression of XPO1 (XPO1): degraded XPO1 in a dose-dependent manner | IC50 (Daudi): 8 nM | IC50 (HEP3B): 300 nM | IC50 (LoVo): 680 nM | IC50 (MV-4-11): 100 nM | IC50 (NCI-H1650): > 10000 nM | IC50 (NCI-H2122): 840 nM | IC50 (NCI-H2170): 2140 nM | IC50 (NCI-H358): 420 nM | IC50 (NCI-H508): 860 nM | IC50 (NCI-H520): 1300 nM | IC50 (NCI-H820): 3400 nM | IC50 (PANC-10.05): 990 nM | IC50 (SHSY5Y): 50 nM | IC50 (SK-CO-1): 430 nM | IC50 (SW-480): 10000 nM | IC50 (THP1): 3380 nM
SMILES: NC(=O)/C(=C/n1cnc(-c2cc(C(F)(F)F)cc(C(F)(F)F)c2)n1)c1cncnc1 [Compound 124, (E)-3-(3-(3,5-bis(trifluoromethyl)phenyl)-1H-1,2,4-triazol-1-yl)-2-(pyrimidin-5-yl)acrylamide]
nuclear localization of XPO1 cargo proteins [1]: increased or complete nuclear localization of XPO1 cargoes | mean tumor volume (MOLT 4 xenograft): mean tumor volume was reduced | IC50 (BL-2): 30 nM | IC50 (C6): 150 nM | IC50 (DB): 60 nM | IC50 (HPAC): 10000 nM | IC50 (HTB-38): > 10000 nM | IC50 (LS-174T): 10000 nM | IC50 (MS751): 400 nM | IC50 (PATU-8902): 410 nM | IC50 (TFK-1): > 10000 nM | IC50 (Tera-1): 150 nM | IC50 (Z-138): 6 nM
